Results published in paper PMC10096391, “Discovery of N,4-Di(1H-pyrazol-4-yl)pyrimidin-2-amine-Derived CDK2 Inhibitors as Potential Anticancer Agents: Design, Synthesis, and Evaluation” (Molecules, 2023).

Legend:
Format in all cases: cell-based
U87 glioblastoma cells = test: Cell viability assay (MTT/resazurin), U87; settings: read-out: Antiproliferative Activity, GI50
Text: (§1) Cancer cell lines derived from leukemia (MV4-11 and U937), breast (MCF7 (Rb-positive) and MDA-MB-231(Rb-negative)), and ovarian (A2780, OVCAR5, OAW28, OV90, Cov318, and Cov504) cancers, and glioblastoma (U87, T98G and U251) were acquired from the cell bank at Drug Discovery and Development, University of South Australia, and cultured according to the American Type Culture Collection (ATCC) recommendation in Roswell Park Memorial Institute (RPMI)-1640, Dulbecco’s Modified Eagle’s Medium (DMEM), or Minimum Essential Media (MEM), with 10% fetal bovine serum (Sigma-Aldrich, Castle Hill, NSW, Australia) within a humidified incubator at 37 °C in the presence of 5% CO2.
(§2) The MTT (Life Technologies, Mulgrave, VIC, Australia) and resazurin (Sigma-Aldrich) assays were used to determine the antiproliferative activities of the compounds initially at 1 µM against the cancer cell lines stated above.

OVCAR5 cells [1] = test: Annexin V/PI apoptosis assay, OVCAR5; settings: 48 h
Procedure: (§3) Annexin V-fluorescein isothiocyanate (FITC) apoptosis detection kit I (consisting of a ten-time stock solution of binding buffer, FITC–annexin V, and PI staining solution) was used to determine the effect of the compounds on cancer cell survival as previously reported. Briefly, six-well plates (Sigma-Aldrich, NSW, Australia) were seeded with about 1–2 × 10^5 cells/well in 2 mL growth medium, incubated at 37 °C and 5% CO2 overnight, treated with various concentrations of the test compounds, and incubated for 48 h. The wells were collected by trypsinization, transferred into FACS tubes, washed twice with 1 × PBS, and centrifuged at 300× g for 5 min. The pellets were then suspended in 100 µL of 1 × binding buffer and incubated in the dark with 3 µL of PI and 3 µL of FITC-conjugated annexin V solutions for 15 min. Finally, 200 µL of binding buffer was added to each sample and analyzed by the CytoFLEX cytometer. The extent of apoptotic cell death was quantified as the sum of the percentages of early apoptotic cells (annexin V-positive and PI-negative) and late apoptotic cells (both annexin–V- and PI-positive) and presented graphically as a contour diagram relative to the untreated control.

OVCAR5 cells [2] = test: Colony formation (crystal violet), OVCAR5; settings: OVCAR5, 10 days; 15 at 0.5 and 2 µM, CYC065 at 0.5 µM
Procedure: (§4) Briefly, ovarian cancer cells (i.e., A2780, OVCAR5, and OV90) seeded in six-well plates were adhered for 6 h and treated with 15. The medium that contained the compound was then changed every 72 h. Ten days after treatment, the cells were washed with PBS, fixed, and stained with crystal violet staining solution (0.05% crystal violet, 1% formaldehyde, 1% PBS, and 1% ethanol), and colonies were quantified using ImageJ software (National Institute of Health, Maryland, USA), with data presented as percentages of the control cells.

A2780 cells [3] = test: Cell cycle analysis by flow cytometry, A2780; settings: A2780, 2 µM, 48 h
Procedure: (§5) The effect of the compounds on cell cycle distribution was evaluated following a previously reported method. Briefly, six-well plates (Sigma-Aldrich, NSW, Australia) were seeded with about 1–2 × 10^5 cells/well in 2 mL growth medium, incubated at 37 °C and 5% CO2 overnight, and treated with various concentrations of the test compounds and incubated for 48 h. The wells were collected by trypsinization, transferred into fluorescence-activating cell sorting (FACS) tubes, washed with 1 × phosphate-buffered saline (1 × PBS) twice, fixed in 70% (v/v) ice-cold ethanol for 15 min, and centrifuged at 300× g for 5 min. The cell pellets were then collected, stained with 200 µL of the cell cycle solution (comprising 50.0 μg/mL PI, 0.1 mg/mL RNase A, and 0.05% Triton X-100), and incubated for 1.5 h at room temperature in the dark. Finally, the DNA content was determined by a flow cytometer (CytoFLEX) and analyzed by CytExpert 2.1 software (Beckman Coulter, Brea, CA, USA).

MV4-11 leukemia cells = test: Cell viability assay (MTT/resazurin), MV4-11; settings: Homo sapiens, read-out: Antiproliferative Activity, GI50
Text: as §1, §2

U937 leukemia cells = test: Cell viability assay (MTT/resazurin), U937; settings: Homo sapiens, U-937, read-out: Antiproliferative Activity, GI50
Text: as §1, §2

OVCAR5 cells [4] = test: Cell cycle analysis by flow cytometry, OVCAR5; settings: 48 h
Procedure: as §5

[5] = system: OV90 ovarian cancer cells; test: Cell viability assay (MTT/resazurin), OV90; settings: Homo sapiens, OV-90, read-out: Antiproliferative Activity, GI50
Text: as §1, §2

[6] = system: A2780 ovarian cancer cells; test: 72 h MTT antiproliferative assay, A2780; settings: Homo sapiens, A2780; 72 h MTT
Text: as §1, §2

U251 glioblastoma cells = test: Cell viability assay (MTT/resazurin), U251; settings: Homo sapiens, U-251, read-out: Antiproliferative Activity, GI50
Text: as §1, §2

A2780 cells [7] = test: Colony formation (crystal violet), A2780; settings: A2780, 10 days; 15 at 0.5 and 2 µM, CYC065 at 0.5 µM
Procedure: as §4

MCF7 breast cancer cells = test: Cell viability assay (MTT/resazurin), MCF7; settings: Homo sapiens, read-out: Antiproliferative Activity, GI50
Text: as §1, §2

[8] = system: panel of 13 cancer cell lines; test: Antiproliferative activity, cancer cell line panel; settings: all cancer cell lines tested; read-out: GI50 range over the cancer cell line panel
Text: as §1, §2

OVCAR5 cells [9] = test: Western blot analysis of OVCAR5 cells
Procedure: Western blot analysis of the compounds was carried out as previously reported. The antibodies were purchased from Cell Signaling Technology (Danvers, MA, USA).

A2780 cells [10] = test: Annexin V/PI apoptosis assay, A2780; settings: 48 h
Procedure: as §3

GI50 (U87 glioblastoma cells): 560 nM | GI50 (MV4-11 leukemia cells): 127 nM | GI50 (U937 leukemia cells): 186 nM | GI50 [5]: 390 nM | GI50 [6]: 158 nM | GI50 (U251 glioblastoma cells): 350 nM | GI50 (MCF7 breast cancer cells): 342 nM | GI50 [8]: 127 to 560 nM
SMILES: Cn1cc(-c2nc(Nc3cn[nH]c3)ncc2Cl)cn1 [Compound 15, 5-Chloro-4-(1-methyl-1H-pyrazol-4-yl)-N-(1H-pyrazol-4-yl)pyrimidin-2-amine]
viability at 0.5 µM (OVCAR5 cells [1]; Homo sapiens, OVCAR-5, OVCAR5, 0.5 µM, read-out: Q1-LL, viable cells): 67.4% | viability at 2 µM (OVCAR5 cells [1]; Homo sapiens, OVCAR-5, OVCAR5, 2 µM, read-out: Q1-LL, viable cells): 57.8% | apoptosis (annexin V positive, early + late) (OVCAR5 cells [1]; OVCAR5, 0.5 µM): 30% | apoptosis (annexin V positive, early + late) (OVCAR5 cells [1]; OVCAR5, 2 µM): 38% | effect on colony formation (OVCAR5 cells [2]): inhibited | S-phase cells (A2780 cells [3]): 26% | increment in the subpopulation of G2/M cells compared to the vehicle control (OVCAR5 cells [4]; OVCAR5, 0.5 µM): 39% | G2/M cells (OVCAR5 cells [4]; OVCAR5, 2 µM): 53% | S-phase cells (OVCAR5 cells [4]; OVCAR5, 2 µM): 26% | effect on colony formation (A2780 cells [7]): inhibited | p-FAK(Ser732) level (CDK5 kinase activity in cells) (OVCAR5 cells [9]; OVCAR5, 2 µM, 48 h): completely abolished | p-RNAPol-II(Ser2) level (CDK9 kinase activity in cells) (OVCAR5 cells [9]; OVCAR5, 2 µM, 48 h): completely abolished | p-Rb(Thr821) level (CDK2 kinase activity in cells) (OVCAR5 cells [9]; OVCAR5, 2 µM, 48 h): completely abolished | anti-apoptotic protein MCL1 (OVCAR5 cells [9]; OVCAR5, 48 h): downregulation | caspase-3 (OVCAR5 cells [9]; OVCAR5, 48 h): cleavage | phosphorylated histone H2AX (p-H2AX), DNA damage marker (OVCAR5 cells [9]; OVCAR5, 48 h): appearance | apoptosis (annexin V positive, early + late) (A2780 cells [10]; A2780, 0.5 µM): 47% | apoptosis (annexin V positive, early + late) (A2780 cells [10]; A2780, 2 µM): 49% | viability at 0.5 µM (A2780 cells [10]; Homo sapiens, A2780, 0.5 µM, read-out: Q1-LL, viable cells): 52.7% | viability at 2 µM (A2780 cells [10]; Homo sapiens, A2780, 2 µM, read-out: Q1-LL, viable cells): 50.5%
